Results on 21 compounds are retold here after patent publication US20140113931A1, “SUBSTITUTED PICOLINAMIDE KINASE INHIBITORS” (Portola Pharmaceuticals, Inc., priority 2012, published 2014).

The target of this experiment is T1, full length active recombinant SYK enzyme (Homo sapiens, UniProt P43405).
T1 construct: full length active recombinant SYK enzyme (Millipore, CA); purchased Millipore, CA
Kind of experiment: Inhibition of Syk tyrosine phosphorylation activity (LANCE TR-FRET kinase assay). It counts as biochemical. To be noted: 1 nM active SYK enzyme, 550 nM SYK-substrate, 100 μM ATP, 1 hour at room temperature. How it is done: The in vitro and in vivo human Syk activities of the inventive compounds can be determined by various procedures known in the art, such as a test for their ability to inhibit the activity of human plasma Syk. […] The IC50 value is the concentration (in nM) of the compound required to provide 50% inhibition of human Syk proteolytic activity.
An in vitro assay for detecting and measuring inhibition activity against Syk is as follows:
SYK tyrosine phosphorylation activity is measured using the LANCE™ Technology developed by Perkin Elmer Life and Analytical Sciences (Boston, Mass.). LANCE™ refers to homogeneous time resolved fluorometry applications using techniques such as time-resolved fluorescence resonance energy transfer assay (TR-FRET) (see generally for procedures in Perkin Elmer Application Note—How to Optimize a Tyrosine Kinase Assay Using Time Resolved Fluorescence-Based LANCE Detection, wwww.perkinelmer.com/lifesciences). The assay principle involves detection of a phosphorylated substrate using energy transfer from a phosphospecific europium-labeled antibody to streptavidin-allophycocyanin as an acceptor.
Molecules are reconstituted in 30% DMSO and serially diluted 1:3 with the final dilution containing DMSO in the absence of the candidate molecule. The final DMSO concentration in the assay is 3%. Kinase assays are performed as a two part reaction. The first reaction is a kinase reaction and which comprises of a candidate molecule, full length active recombinant SYK enzyme (Millipore, CA) and biotin-labeled SYK-specific substrate biotin-DEEDYESP-OH. The second reaction involves termination of the kinase reaction and the simultaneous addition of the detection reagents-europium-labeled anti-phosphotyrosine reagent (Eu-W1024-PY100, Perkin Elmer, Boston, Mass.) and Streptavidin-Allophycocyanin detection reagent (SA-APC, Prozyme, CA). The kinase reaction is performed in a black U-bottom 96-well microtitre plate. The final reaction volume is 50 μL and contains a final concentration of 1 nM active SYK enzyme, 550 nM SYK-substrate, and 100 μM ATP diluted in a buffer containing 50 mM Tris pH 7.5, 5 mM MgCl2, and 1 mM DTT. The reaction is allowed to proceed for 1 hour at room temperature. The quench buffer contains 100 mM Tris pH 7.5, 300 mM NaCl2, 20 mM EDTA, 0.02% Brij35, and 0.5% BSA. The detection reagents are added to the reaction mixture at the following dilutions-1:500 for Eu-W1024-PY100 and 1:250 for SA-APC. The kinase reaction is terminated by the addition of 50 μL quench buffer containing the detection reagents. The detection is allowed to proceed for 1 hr at room temperature. Detection of the phosphorlated substrate in the absence and presence of inhibitors is measured in the TR-FRET instrument, Analyst HT (Molecular Probes, Sunnyvale, Calif.) and the condition for measurements are set up using CriterionHost Release 2.0 (Molecular Probes, Sunnyvale, Calif.). The settings used are a follows: excitation 360 nm, emission 665-7.5 nm, beam splitter 350 nm 50/50, flash 100 pulses, delay 60 us, integration 400 us, z-height 2 mm. Inhibition of SYK-tyrosine kinase activity is calculated as the maximum response observed in the presence of inhibitor, compared to that in the absence of inhibitor. IC50s were derived by non-linear regression analysis.
A general note: In TR-FRET formats the signal depends on donor and acceptor labels being close together.
As to `CC(C)C[C@@H](Nc1cnc(C(N)=O)c(Nc2cc(-c3ccccc3)no2)c1)C(N)=O` [Example 11, (R)-5-(1-amino-4-methyl-1-oxopentan-2-ylamino)-3-(3-phenylisoxazol-5-ylamino)picolinamide], the IC50 lay in the range of 0.001 to 0.01 µM. The same measure for `NC(=O)c1ncc(N[C@@H]2CCCC[C@@H]2N)cc1Nc1ccc2cccnc2c1` [Example 15, 5-((1R,2S)-2-aminocyclohexylamino)-3-(quinolin-7-ylamino)picolinamide]: 0.01 to 0.1 µM.

For the compound `Cc1cc(Nc2cc(N[C@@H]3CCCC(F)(F)[C@@H]3N)cnc2C(N)=O)sn1` [Example 2, 5-((1R,2R)-2-amino-3,3-difluorocyclohexylamino)-3-(3-methylisothiazol-5-ylamino)picolinamide], the IC50 lay in the range of 0.01 to 0.1 µM.

`NC(=O)c1ncc(N[C@@H]2CCCC[C@@H]2N)cc1Nc1cc(-c2cccnc2)no1` [Example 50, 5-((1R,2S)-2-aminocyclohexylamino)-3-(3-(pyridin-3-yl)isoxazol-5-ylamino)picolinamide]: the IC50 lay within 0.01 to 0.1 µM. The result for `Cc1cc(Nc2cc(N[C@@H](C(N)=O)C(C)C)cnc2C(N)=O)sn1` [Example 7, (R)-5-(1-amino-3-methyl-1-oxobutan-2-ylamino)-3-(3-methylisothiazol-5-ylamino)picolinamide] reads 0.01 to 0.1 µM; that for `Cc1cc(Nc2cc(N[C@@H](C(N)=O)c3ccccc3)cnc2C(N)=O)sn1` [Example 42, (R)-5-(2-amino-2-oxo-1-phenylethylamino)-3-(3-methylisothiazol-5-ylamino)picolinamide], 0.01 to 0.1 µM; that for `Cc1cc(Nc2cc(N[C@@H]3CCCC[C@@H]3N)cnc2C(N)=O)sn1` [Example 4, 5-((1R,2S)-2-aminocyclohexylamino)-3-(3-methylisothiazol-5-ylamino)picolinamide], 0.001 to 0.01 µM.

For the compound `NC(=O)c1ncc(N[C@@H]2CCCC[C@@H]2N)cc1Nc1cccc(-n2nccn2)c1` [Example 6, 3-(3-(2H-1,2,3-triazol-2-yl)phenylamino)-5-((1R,2S)-2-aminocyclohexylamino)picolinamide], the IC50 lay within 0.01 to 0.1 µM.

As for `CC(C)C[C@@H](Nc1cnc(C(N)=O)c(Nc2nc(-c3ccccc3)no2)c1)C(N)=O` [Example 30, (R)-5-((1-amino-4-methyl-1-oxopentan-2-yl)amino)-3-((3-phenyl-1,2,4-oxadiazol-5-yl)amino)picolinamide], the IC50 is 0.01 to 0.1 µM. For the compound `NC(=O)c1ncc(N[C@@H]2CCCC[C@@H]2N)cc1Nc1ccc2ccncc2c1` [Example 14, 5-((1R,2S)-2-aminocyclohexylamino)-3-(isoquinolin-7-ylamino)picolinamide], the IC50 lay within 0.01 to 0.1 µM. The same measure for `NC(=O)c1ncc(N[C@@H]2CCCC(F)(F)[C@@H]2N)cc1Nc1cc(-c2ccccc2)no1` [Example 9, 5-((1R,2R)-2-amino-3,3-difluorocyclohexylamino)-3-(3-phenylisoxazol-5-ylamino)picolinamide]: 0.1 to 1 µM; for `NC(=O)c1ncc(N[C@@H]2CCCC[C@@H]2N)cc1Nc1ccc2cnccc2c1` [Example 12, 5-((1R,2S)-2-aminocyclohexylamino)-3-(isoquinolin-6-ylamino)picolinamide]: 0.01 to 0.1 µM; for `CC[C@@H](Nc1cnc(C(N)=O)c(Nc2cc(C)ns2)c1)C(N)=O` [Example 5, (R)-5-(1-amino-1-oxobutan-2-ylamino)-3-(3-methylisothiazol-5-ylamino)picolinamide]: 0.01 to 0.1 µM. The same measure for `NC(=O)c1ncc(N[C@@H]2CCOC[C@@H]2N)cc1Nc1cc(-c2ccncc2)no1` [Example 52, 5-((3R,4R)-3-aminotetrahydro-2H-pyran-4-ylamino)-3-(3-(pyridin-4-yl)isoxazol-5-ylamino)picolinamide]: 0.01 to 0.1 µM; for `Cc1cc(Nc2cc(N[C@@H]3CCCC[C@@H]3N)cnc2C(N)=O)on1` [Example 10, 5-((1R,2S)-2-aminocyclohexylamino)-3-(3-methylisoxazol-5-ylamino)picolinamide]: 0.01 to 0.1 µM; for `NC(=O)c1ncc(N[C@@H]2CCCC[C@@H]2N)cc1Nc1nc(-c2ccccc2)no1` [Example 29, 5-(((1R,2S)-2-aminocyclohexyl)amino)-3-((3-phenyl-1,2,4-oxadiazol-5-yl)amino)picolinamide]: 0.01 to 0.1 µM. The same measure for `NC(=O)c1ncc(N[C@@H]2CCCC[C@@H]2N)cc1Nc1cc(-c2ccncc2)no1` [Example 49, 5-((1R,2S)-2-aminocyclohexylamino)-3-(3-(pyridin-4-yl)isoxazol-5-ylamino)picolinamide]: 0.001 to 0.01 µM; for `CC(C)C[C@@H](Nc1cnc(C(N)=O)c(Nc2ccc3cnccc3c2)c1)C(N)=O` [Example 17, (R)-5-(1-amino-4-methyl-1-oxopentan-2-ylamino)-3-(isoquinolin-6-ylamino)picolinamide]: 0.01 to 0.1 µM.

`CC(C)c1cc(Nc2cc(N[C@@H]3CCCC[C@@H]3N)cnc2C(N)=O)on1` [Example 36, 5-((1R,2S)-2-aminocyclohexylamino)-3-(3-isopropylisoxazol-5-ylamino)picolinamide]: the IC50 is 0.01 to 0.1 µM.

With `Cc1cc(Nc2cc(N[C@H](CC3CC3)C(N)=O)cnc2C(N)=O)sn1` [Example 3, (R)-5-(1-amino-3-cyclopropyl-1-oxopropan-2-ylamino)-3-(3-methylisothiazol-5-ylamino)picolinamide], the IC50 was in the range of 0.001 to 0.01 µM. Take `Cc1cc(Nc2cc(N[C@H](CC(C)C)C(N)=O)cnc2C(N)=O)sn1` [Example 1, (R)-5-(1-amino-4-methyl-1-oxopentan-2-ylamino)-3-(3-methylisothiazol-5-ylamino)picolinamide]: the IC50 was in the range of 0.001 to 0.01 µM.

The IC50 is the concentration at which inhibition is half-maximal.
